Square brackets hold non-standard residues; d marks the D form. Peptide text beside a SMILES is read from it. Nle = CCCC[C@H](N)C(=O)O
How the values were obtained:
[1] = system: beta-galactosidase transgene; assay: In vivo transgene RNA in liver by RT-PCR; set-up: species or system C57BL/6 mice; settings: CI-1 60 mg/kg ip, three administrations; 9×10^9 particle/ml rAd beta-galactosidase tail vein; seen in one third of the mice
Method: […] C57BL/6 mice were treated with 60 mg/kg injected intraperitoneally on day minus one. Three control mice were injected with CI-1 solvent only (PBS/0.02% DMSO). On day zero, all mice were tail vein injected with 9×10^9 particle/ml with a recombinant adenovirus encoding the beta-galactosidase transgene. CI-1 or solvent was administed one additional time on day one for three total intraperitoneal administrations of CI-1. Mice were sacrificed three days and nine days later (four-and ten days post-infection respectively), and livers were harvested for quantitative PCR and RT-PCR to detect viral DNA and viral transcript (b-galactosidase) respectively. One third of the miceexpressed a high level of transgene RNA in response to calpain inhibitor 1 treatment, as compared with virus alone.

[2] = system: AP-1; assay: Gel shift assay; assay type: cell-based; settings: HLF cells; 10 μM CI-1; 24 hours post treatment
Method: (§1) The lanes on the gel are labelled as follows: Lane 1=DMF solvent alone control; Lane 2=10 μM CI-1; Lane 3=a null control vector based on ACN53 without the p53 transgene (ZZCB); Lane 4=ZZCB+10 μM CI-1; Lane 5=ACN53 alone and Lane 6=ACN53+ 10 μM CI-1. Panel A illustrates the induction of NF-kb upon administration of calpain inhibitor 1. Panel B illustrates the induction of AP-1 upon administration of calpain inhibitor 1.
(§2) In contrast to these studies, the present invention further provides a method of enhancing transcription of a therapeutic transgene from the CMV promoter. The term “enhancing transcription” refers to an increase in the transcriptional activity of those sequences operably linked to the CMV promter. The term CMV promoter means the immediate early promoter of the cytomegalovirus. The promoter may be isolated as a restriction endonuclease fragment from the commercially available vector pCMVβ (GenBank Accession Number U02451). […] The CMV promoter is a strong constituitive promoter widely utilized in the expression of exogenous transgenes from viral vectors. Recent reports indicated an upregulation of the CMV promoter driven genes in response to recombinant adenoviral infection. […] In response to calpain inhibitor 1 treatment, a 42% increase in NF-kB activation was detected, and a 50% increase in AP1 activation was detected as quantified by densitometer readings. […]

[3] = system: NF-kB; assay: Gel shift assay; assay type: cell-based; settings: HLF cells; 10 μM CI-1; 24 hours post treatment
Method: as §1, §2

[4] = system: proteasome; settings: below 50 μM primarily an inhibitor of calpain; cited from earlier work
[5] = system: U87 cells; assay: Apoptosis by annexin V-FITC staining, flow cytometry; assay type: cell-based
Method: P53 was administered to the cells by the use of the replication defective adenoviral vector ACN53 described in Wills, et al., supra. The effect of varying concentrations of rAd-p53 (from 1×10^9 to 2×10^9 rAd-p53 particles/ml of solution) was investigated in combination with CI-1 in a range of 5–20 μm. The effects of individual and combination treatment was determined in the in DLD1, RKO, HLF and SK-Hep1 cells was investigated in substantial accordance with the teaching of Examples 2 and 3 herein. […] The results are presented in graphical format in FIG. 3 of the attached drawings. In brief, the results were as follows:
The effect of an inhibitor of μ-calpains, CI-1 (N-acetyl-leu-leu-norleucinal), was investigated for its ability to enhance p53 mediated apoptosis in tumor cell lines having p53+ and p53− status listed in Table1. […] To detect a G0/G1 block, bromodeoxyuridine (BrdU) incorporation followed by flow cytometric analysis was done 17 hours post-treatment as described in Example 4 herein. […] The results of these experiments are presented in FIGS. 1 and 2 of the attached drawings. In FIG. 1, each point on the graph represents percentage annexin V positive after background percentage (DMF alone) was subtracted.
An aliquot containing approximately 1×10^6 cells of each type was placed in a T-225 flask. The effect of varying concentrations of rAd-p53 (from 1×10^7 to 2×10^9ACN53 particles/ml of solution) was investigated in combination with CI-1 in a range of 5–20 μM. […]
Apoptosis was monitored visually by observing blebbed nuclei characteristic of apoptosis, by propidium iodide staining (using propidium iodide commercially available from Molecular Probes, Inc.) followed by flow cytometric analysis to look for subgenomic populations of cells, and by labeling cells with annexin V-FITC (commercially available from Boehringer Mannheim) in substantial accordance with the instructions provided by the manufacturer, followed by flow cytometric analysis on a FACScan Flow Cytometer (commercially available from Becton Dickinson).

## CCCC[C@@H](C=O)NC(=O)[C@H](CC(C)C)NC(=O)[C@H](CC(C)C)NC(C)=O [CI-1, N-acetyl-leu-leu-norleucinal] (Ac-Leu-Leu-[Nle]-aldehyde)
[1]
  level of transgene RNA in liver compared with virus alone: Approximately a six fold higher level
[2]
  increase in AP1 activation (densitometer): 50%
[3]
  increase in NF-kB activation (densitometer): 42%
[4]
  concentration above which CI-1 inhibits proteasome function: above 50 μM
[5]; 10 μM CI-1, 24 hrs
  Percentage of Cells Undergoing Apoptosis: 41%
[5]; 20 μM CI-1 treatment, increase from 5%
  percentage of apoptotic cells: 72%
[5]; calpain inhibitor 1, 10 μM for 4 days
  cells annexin V-FITC positive: ~100%

— US7001770B1, “Calpain inhibitors and their applications” (priority 1998, dated 2006)
